Test results as given in patent US11215608B2, “Methods of determining cellular chemosensitivity” (Dana-Farber Cancer Institute, Inc., priority 2006, dated 2022).
Ends that are not written are not given here. Peptide text beside a SMILES is read from it. * marks the point of attachment. Cbz = O=C(OCc1ccccc1)*; CH2F = FC*

Legend:
[1] = test system: CLL mitochondria; assay: Cytochrome c release from CLL mitochondria; format: biochemical, human; conditions: peptides or compounds 100 μM
Method: Alternatively, mitochondria were purified from freshly isolated CLL cells and cell lines by mechanical disruption followed by differential centrifugation, as previously described (Letai et al., 2002). Mitochondrial suspensions were made at 0.5 mg protein/ml, except for the case of ABT-737 and negative control enantiomer treatments, where 0.1 mg/ml was used. Release of cytochrome c was determined by a comparison of cytochrome c in the pellet and supernatant quantitated by ELISA (R&D systems).
CLL mitochondria were incubated with BH3 peptides as well as ABT-737 and negative control enantiomer (FIG. 14). […] This pattern is diagnostic of mitochondrial BCL-2 dependence. […] Since the BH3 peptides in the sensitizer panel lack the ability to directly activate BAX and BAK, these experiments also implicated the presence of an activator molecule constitutively sequestered by BCL-2 in CLL.

[2] = test system: CLL cells; assay: Annexin-V death assay of freshly isolated primary CLL cells; format: cell-based, human
Method: Cells were stained with fluorescent conjugates of Annexin-V (BioVision) and propidium iodide (PI) and analyzed on a FACSCalibur machine (Becton-Dickinson).
15 ml of blood in heparin treated tubes was obtained from each anonymous CLL patient and processed without freezing. Equal volume of media (RPMI medium, 10% […], supplemented with […] and 10 mg/ml transferrin) was mixed with each sample and CLL cells isolated by centrifugation through Ficoll-PAQUE Plus (Amersham). Cells were washed twice in media and cultured at a density of 2.0×10^6 cells/ml for up to 48 hours. Samples for FIG. 11A were obtained from 24 consecutive patients identified with WBC >50,000/μl. All guidelines and regulations were followed in accordance with IRB protocols #99-224 (Dana-Farber Cancer Institute). Normal PBMC's were obtained from tubing discarded following platelet donation by anonymous normal donors and processed as above, except cultured without insulin and transferrin.
Experimental replicates were performed using lysates or mitochondria from different CLL samples. In main body, where a P value is given, it was obtained by using a two-tailed Students t-test, and P<0.05 was considered statistically significant. GraphPad Prism software was used to determine EC50 values by non-linear dose-response curve fitting and to perform Mann-Whitney nonparametric testing in Table 5.
Freshly isolated primary CLL cells were incubated with ABT-737 or negative control enantiomer. After 48 hours, death was assessed using Annexin-V staining.

[3] = test system: mouse liver mitochondria; assay: Cytochrome c release from mouse liver mitochondria; format: biochemical; conditions: no tBID, also at 10-fold higher concentrations
Method: Mitochondria were purified from liver and FL5.12cells as previously described (Letai et al., 2002). Mitochondria were purified from leukemia cells and 2B4 cells as previously described for FL5.12 cells. Mitochondria were incubated with treatments for 45 (mouse liver mitochondria) or 35 minutes (FL5.12, 2B4, and leukemic mitochondria). Release of cytochrome c was determined by a comparison of cytochrome c in the pellet and supernatant following treatment, quantitated by ELISA (R&D systems). When results of multiple experiments were averaged, results from solvent-only (DMSO) treatments values were subtracted from each, so that 0 release reflects that observed in solvent-only treatments.
To test if selective binding corresponded to ability of individual BH3 domains to selectively antagonize antiapoptotic function, a purified mitochondrial system was constructed in which the critical apoptosis decision making molecular machinery was reconstituted. […] The multidomain proapoptotic function was provided by the BAK which resides in mouse liver Mitochondria; mouse liver mitochondria contain no detectable BAX protein (Letai et al., 2002). The dominant antiapoptotic function was provided by one of the five different recombinant antiapoptotic proteins used in the binding assays. BH3 peptides provided the sensitizer function.
Furthermore, when the panel of sensitizer BH3 peptides was tested in the presence of the antiapoptotic protein BCL-XL, there was still no cytochrome c release, formally ruling out the possibility that the BH3 peptides were somehow directly converting antiapoptotic proteins to a proapoptotic function (FIG. 2). To induce MOMP and cytochrome c release, there appears to be an absolute requirement for an activator function, here provided by the tBID protein.

Compound | cytochrome c release [1] | cytochrome c release by peptide alone [3] | also measured
BADmut: point mutant (L→A) of BAD BH3, LWAAQRYGREARRMSDEFEGSFKGL (SEQ ID NO: 13), negative control (Chemically synthesized primer) | do not |  | 
COC(=O)C[C@H](NC(=O)[C@H](C)NC(=O)[C@@H](NC(=O)OCc1ccccc1)C(C)C)C(=O)CF [ZVAD-fmk] (Cbz-Val-Ala-Asp(OMe)-CH2F) |  |  | protection against ABT-737-induced death ([2]; co-treatment, 200 μM): protects against ABT-737-induced death
BH3 domain peptide of BNIP3-a, VVEGEKEVEALKKSADWVSD (SEQ ID NO: 9) (not fully specified (N-terminus)) | do not | none of the sensitizer BH3 peptides by themselves can induce cytochrome c release significantly above background | 
second BH3 domain peptide of murine NOXA, PADLKDECAQLRRIGDKVNL (SEQ ID NO: 7) (not fully specified (N-terminus)) [NOXA B] |  | none of the sensitizer BH3 peptides by themselves can induce cytochrome c release significantly above background | 
CN(C)CC[C@@H](CSc1ccccc1)Nc1ccc(S(=O)(=O)NC(=O)c2ccc(N3CCN(Cc4ccccc4-c4ccc(Cl)cc4)CC3)cc2)cc1[N+](=O)[O-] [NCE] |  |  | EC50 ([2]; twenty-four CLL samples, 48 hours, read-out: mean EC50, apoptosis of CLL cells): 574 nM
CC(C)C[C@H](NC(=O)[C@H](C)NC(=O)[C@H](CCCCN)NC(=O)[C@H](CC(C)C)NC(=O)[C@H](CCCNC(=N)N)NC(=O)[C@H](C)NC(=O)[C@H](C)NC(=O)[C@@H](NC(=O)[C@H](CC(C)C)NC(=O)[C@H](CCC(N)=O)NC(=O)[C@H](C)NC(=O)[C@H](C)NC(=O)[C@H](CO)NC(=O)[C@H](CO)NC(=O)CCCCCNC(=S)Nc1ccc2c(c1)C(=O)OC21c2ccc(O)cc2Oc2cc(O)ccc21)[C@@H](C)O)C(=O)NCC(=O)N[C@@H](CC(=O)O)C(=O)N[C@@H](CCC(=O)O)C(=O)N[C@@H](CC(C)C)C(=O)N[C@@H](Cc1c[nH]cn1)C(=O)N[C@@H](CCC(N)=O)C(=O)O [HRK] | do not | none of the sensitizer BH3 peptides by themselves can induce cytochrome c release significantly above background | 
